Ten compounds from ChEMBL document CHEMBL3585288, “Synthesis, characterization and evaluation of the substituent effect on the amoebicide activity of new hydrazone derivatives” (Medchemcomm, 2014) can be followed below.

The subject of the first assay is Entamoeba histolytica. Briefly: Amoebicidal activity against trophozoite stage of Entamoeba histolytica HM-1:IMSS assessed as growth inhibition after 72 hrs by carboxyfluorescein diacetate/propidium iodide staining-based fluorescence microscopic analysis. The format is functional, organism-based.
Take `C(=N\N=C\c1ccccc1)/c1ccccc1`: the IC50 worked out at 96 µM. Still for that read-out and setting: to `C(=N\N(c1ccccc1)c1ccccc1)/c1cccs1` belongs 7.6 µM. Same read-out and setting: the same measure for `O=C(/C(=N/N=C(/C(=O)c1ccccc1)c1ccccc1)c1ccccc1)c1ccccc1`: 18 µM; for `C(=N\Nc1ccccc1)/c1ccco1`: 120 µM. For `O=[N+]([O-])c1ccc(-c2ccc(/C=N/Nc3ccccc3)o2)cc1`, the IC50 turned out to be 0.98 µM. Consider `C(=N\N(c1ccccc1)c1ccccc1)/c1ccccc1`, for which the IC50 turned out to be 78 µM. Same read-out and setting: to `O=[N+]([O-])c1cccc(/C=N/N(c2ccccc2)c2ccccc2)c1` belongs 19 µM; to `Cc1ncc([N+](=O)[O-])n1CCO` [METRONIDAZOLE], 6.8 µM. With `O=[N+]([O-])c1ccc(-c2ccc(/C=N/N=C/c3ccc(-c4ccc([N+](=O)[O-])cc4)o3)o2)cc1`, the IC50 was determined as 13 µM. Same read-out and setting: to `O=[N+]([O-])c1ccc(-c2ccc(/C=N/N(c3ccccc3)c3ccccc3)o2)cc1` belongs 16 µM.

The test system of the next assay is Entamoeba histolytica. Description: Potency index, ratio of metronidazole IC50 to compound IC50 for trophozoite stage of Entamoeba histolytica HM-1:IMSS. The format is functional.
As to `O=[N+]([O-])c1ccc(-c2ccc(/C=N/Nc3ccccc3)o2)cc1`, the “Ratio IC50” value is recorded as 7.
